The nature of series [1]: Standard CCK-8 cytotoxicity assay. It is filed as cell-based. The note with it: African green monkey, Vero E6 cells, 48 hours incubation. The procedure: Vero E6 African green monkey kidney cell line was obtained from American Type Culture Collection (ATCC, No. 1586) and maintained in MEM medium (MEM; Gibco Invitrogen) supplemented with 10% fetal bovine serum (FBS; Gibco Invitrogen) at 37° C. in an atmosphere of 5% CO2.
Standard CCK-8 assays were performed to measure the cytotoxic effect of the drug candidates on Vero E6 cells, which was performed in accordance with the manufacturer's instructions (Beyotime, China).
A general note: Tetrazolium assays rely on reduction of a dye to a coloured formazan, in cell work by metabolically active cells.

Series [2] has as its system SARS-CoV-2. In words: microbe, parasite or virus in culture. The note with it: for EC50: Severe acute respiratory syndrome coronavirus 2, Vero C1008, Vero E6 cells, MOI 0.05, 1 hour pretreatment, viral RNA in supernatant 48 hours post infection; for SI (selectivity index): from the CC50 and EC50 values in Vero E6 cells. It is filed as cell-based.

Consider `NC(=O)c1ncn([C@@H]2O[C@H](CO)[C@@H](O)[C@H]2O)n1` [RBV, 1-[(2R, 3R, 4S, 5R)-3,4-dihydroxy-5-(hydroxymethyl)oxolan-2-yl]-1H-1,2,4-triazole-3-carboxamide], for which the CC50 – broadly, the concentration that lowers cell viability or growth by half – at 48 h in series [1] is greater than 400 µM. For the same compound, in series [2], the EC50 – broadly, the concentration giving half of the maximal effect – was determined as 109 µM and the “SI (selectivity index)” value was greater than 3.7.
The corresponding values for `CC(=O)Oc1ccccc1C(=O)Nc1ncc([N+](=O)[O-])s1` [NTZ, o-[N-(5-nitro-1,3-thiazol-2-yl)carbamoyl]phenol acetate)] are 36.8 µM, 2.1 µM and 17.5.

The values are drawn from patent US20230241037A1, “CROSS-LINKED MEDICATION FOR TREATMENT OF CORONAVIRAL INFECTION AND METHOD OF TREATMENT” (1GLOBE HEALTH INSTITUTE, NANJING, priority 2020, published 2023).
